Laboratory results published in ChEMBL document CHEMBL4823291, “Discovery of 5,6,7,8-tetrahydropyrido[3,4-d]pyrimidine derivatives as novel selective Axl inhibitors” (Bioorg Med Chem Lett, 2021).

Legend:
[1] = species on record: Homo sapiens; assay: Ratio of IC50 for Mer (unknown origin) to IC50 for Axl (unknown origin)
[2] = biological target: T1, Tyrosine-protein kinase receptor UFO (Homo sapiens, UniProt P30530); assay: Inhibition of Axl (unknown origin) by cell free assay
T1 sequence (P30530 whole entry): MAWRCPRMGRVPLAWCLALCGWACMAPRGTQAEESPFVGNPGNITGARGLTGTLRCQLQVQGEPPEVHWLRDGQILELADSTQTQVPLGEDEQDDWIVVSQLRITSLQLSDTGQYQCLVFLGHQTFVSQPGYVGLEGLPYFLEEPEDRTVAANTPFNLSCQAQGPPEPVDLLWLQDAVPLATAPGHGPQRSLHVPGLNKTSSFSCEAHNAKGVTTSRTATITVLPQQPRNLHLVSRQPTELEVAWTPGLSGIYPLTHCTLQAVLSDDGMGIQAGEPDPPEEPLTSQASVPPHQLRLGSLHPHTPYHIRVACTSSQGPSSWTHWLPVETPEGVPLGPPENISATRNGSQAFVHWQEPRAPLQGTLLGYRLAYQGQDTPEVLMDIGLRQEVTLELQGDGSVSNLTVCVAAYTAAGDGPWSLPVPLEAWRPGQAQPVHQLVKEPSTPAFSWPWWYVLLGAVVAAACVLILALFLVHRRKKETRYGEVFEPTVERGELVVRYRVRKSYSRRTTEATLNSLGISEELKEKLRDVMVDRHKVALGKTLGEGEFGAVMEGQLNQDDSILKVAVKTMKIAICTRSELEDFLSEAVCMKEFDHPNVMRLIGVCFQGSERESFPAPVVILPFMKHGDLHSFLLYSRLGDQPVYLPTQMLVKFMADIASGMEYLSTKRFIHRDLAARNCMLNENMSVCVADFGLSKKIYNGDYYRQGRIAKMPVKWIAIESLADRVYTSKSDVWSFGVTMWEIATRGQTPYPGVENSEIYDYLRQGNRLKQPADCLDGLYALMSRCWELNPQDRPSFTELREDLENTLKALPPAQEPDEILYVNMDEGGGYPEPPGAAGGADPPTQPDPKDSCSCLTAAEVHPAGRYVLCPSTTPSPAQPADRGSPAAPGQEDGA

[3] = system: BaF3; assay: Ratio of IC50 for Mer in mouse BaF3 cells to IC50 for Axl in mouse BaF3 cells; type: cell-based
[4] = biological target: T2, Tyrosine-protein kinase Mer (Mus musculus, UniProt Q60805); assay: Inhibition of Mer in mouse BaF3 cells; type: cell-based
T2 sequence (Q60805 whole entry): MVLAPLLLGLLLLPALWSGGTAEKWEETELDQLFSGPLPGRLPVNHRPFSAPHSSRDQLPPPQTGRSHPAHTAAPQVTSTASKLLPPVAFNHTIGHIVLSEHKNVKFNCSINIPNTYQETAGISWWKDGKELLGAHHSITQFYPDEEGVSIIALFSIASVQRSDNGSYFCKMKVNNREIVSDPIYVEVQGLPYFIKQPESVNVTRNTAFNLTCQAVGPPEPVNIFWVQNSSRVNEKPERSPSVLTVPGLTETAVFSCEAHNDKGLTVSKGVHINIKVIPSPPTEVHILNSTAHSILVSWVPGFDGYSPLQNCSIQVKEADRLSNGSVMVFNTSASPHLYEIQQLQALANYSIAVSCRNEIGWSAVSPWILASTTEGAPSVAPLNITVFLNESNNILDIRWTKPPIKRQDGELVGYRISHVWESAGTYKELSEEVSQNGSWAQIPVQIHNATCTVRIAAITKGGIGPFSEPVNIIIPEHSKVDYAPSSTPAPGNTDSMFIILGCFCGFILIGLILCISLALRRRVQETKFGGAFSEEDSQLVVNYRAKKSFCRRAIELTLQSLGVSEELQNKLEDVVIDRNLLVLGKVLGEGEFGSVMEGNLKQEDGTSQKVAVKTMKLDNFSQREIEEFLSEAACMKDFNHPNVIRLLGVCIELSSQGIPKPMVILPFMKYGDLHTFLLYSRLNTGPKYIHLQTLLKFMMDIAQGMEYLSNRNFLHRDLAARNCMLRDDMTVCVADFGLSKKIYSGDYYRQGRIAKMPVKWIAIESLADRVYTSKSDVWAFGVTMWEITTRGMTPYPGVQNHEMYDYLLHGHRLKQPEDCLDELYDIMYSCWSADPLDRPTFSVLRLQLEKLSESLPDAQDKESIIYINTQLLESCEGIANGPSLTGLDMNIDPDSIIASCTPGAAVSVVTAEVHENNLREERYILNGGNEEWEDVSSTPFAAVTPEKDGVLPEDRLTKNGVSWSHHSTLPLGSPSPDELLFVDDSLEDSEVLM

[5] = biological target: T3, Tyrosine-protein kinase Mer (Homo sapiens, UniProt Q12866); assay: Inhibition of Mer (unknown origin) by cell free assay
T3 sequence (Q12866 whole entry): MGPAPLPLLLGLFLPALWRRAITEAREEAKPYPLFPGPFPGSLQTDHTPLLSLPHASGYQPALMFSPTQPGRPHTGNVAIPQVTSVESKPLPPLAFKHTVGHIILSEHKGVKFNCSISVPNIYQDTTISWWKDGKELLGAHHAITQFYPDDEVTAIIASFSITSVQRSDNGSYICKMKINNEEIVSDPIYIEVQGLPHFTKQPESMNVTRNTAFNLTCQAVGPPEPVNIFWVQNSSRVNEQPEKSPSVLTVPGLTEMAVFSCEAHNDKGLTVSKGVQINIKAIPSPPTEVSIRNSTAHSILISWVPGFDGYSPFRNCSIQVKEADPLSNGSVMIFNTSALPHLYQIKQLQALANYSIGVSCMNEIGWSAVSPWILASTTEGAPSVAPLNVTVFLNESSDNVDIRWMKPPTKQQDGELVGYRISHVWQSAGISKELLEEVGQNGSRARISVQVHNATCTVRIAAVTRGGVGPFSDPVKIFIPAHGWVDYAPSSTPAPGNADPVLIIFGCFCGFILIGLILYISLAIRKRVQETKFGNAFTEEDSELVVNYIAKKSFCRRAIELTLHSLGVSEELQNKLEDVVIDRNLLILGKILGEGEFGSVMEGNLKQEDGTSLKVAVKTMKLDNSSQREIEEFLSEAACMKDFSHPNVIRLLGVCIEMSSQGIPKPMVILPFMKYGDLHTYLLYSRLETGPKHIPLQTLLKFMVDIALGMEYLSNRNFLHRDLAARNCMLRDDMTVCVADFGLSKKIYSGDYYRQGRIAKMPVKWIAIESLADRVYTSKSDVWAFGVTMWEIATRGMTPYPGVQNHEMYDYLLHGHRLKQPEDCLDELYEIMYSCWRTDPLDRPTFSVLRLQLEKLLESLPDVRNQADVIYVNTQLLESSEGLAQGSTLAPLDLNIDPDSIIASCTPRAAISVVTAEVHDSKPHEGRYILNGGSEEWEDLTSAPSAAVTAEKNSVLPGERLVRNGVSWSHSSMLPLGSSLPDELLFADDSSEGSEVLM

[6] = biological target: T4, Tyrosine-protein kinase receptor UFO (Mus musculus, UniProt Q00993); assay: Inhibition of Axl in mouse BaF3 cells; type: cell-based
T4 sequence (Q00993 whole entry): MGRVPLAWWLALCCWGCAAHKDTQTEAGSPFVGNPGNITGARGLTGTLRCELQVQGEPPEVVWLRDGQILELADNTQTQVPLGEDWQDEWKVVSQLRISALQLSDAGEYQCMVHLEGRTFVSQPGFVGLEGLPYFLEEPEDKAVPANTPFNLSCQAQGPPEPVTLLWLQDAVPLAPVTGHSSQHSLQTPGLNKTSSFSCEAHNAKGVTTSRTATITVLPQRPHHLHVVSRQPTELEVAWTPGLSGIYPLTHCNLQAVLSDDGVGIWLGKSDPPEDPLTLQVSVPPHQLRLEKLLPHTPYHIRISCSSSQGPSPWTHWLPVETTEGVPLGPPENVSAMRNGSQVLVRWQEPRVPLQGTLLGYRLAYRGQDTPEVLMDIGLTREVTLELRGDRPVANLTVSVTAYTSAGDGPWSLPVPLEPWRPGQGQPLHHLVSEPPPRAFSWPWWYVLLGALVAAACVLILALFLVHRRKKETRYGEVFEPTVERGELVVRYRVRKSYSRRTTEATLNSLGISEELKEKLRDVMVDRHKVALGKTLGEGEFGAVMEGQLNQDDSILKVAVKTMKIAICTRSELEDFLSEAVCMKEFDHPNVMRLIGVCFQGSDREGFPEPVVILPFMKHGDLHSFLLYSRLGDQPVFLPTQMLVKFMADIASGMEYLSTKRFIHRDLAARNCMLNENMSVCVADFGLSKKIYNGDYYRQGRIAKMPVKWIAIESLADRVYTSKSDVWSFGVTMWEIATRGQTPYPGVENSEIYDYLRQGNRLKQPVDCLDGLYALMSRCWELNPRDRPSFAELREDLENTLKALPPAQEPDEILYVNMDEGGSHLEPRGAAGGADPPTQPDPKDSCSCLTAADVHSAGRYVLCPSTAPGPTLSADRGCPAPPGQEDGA

Compound	Ratio IC50 [1]	IC50 [2] [nM]	Ratio IC50 [3]	IC50 [4] [nM]	IC50 [5] [nM]	IC50 [6] [nM]
CN1CCC(CN2CCc3c(ncnc3Oc3ccc(NC(=O)c4cn(C5CC5)c(=O)n(-c5ccc(F)cc5)c4=O)cc3F)C2)CC1	26	32	5.3	4110	830	770
CC(C)n1cc(C(=O)Nc2ccc(Oc3ncnc4c3CCN(CC3CCN(C)CC3)C4)c(F)c2)c(=O)n(-c2ccc(F)cc2)c1=O	20	3.7	5.2	78	74	15
CC(C)n1cc(C(=O)Nc2ccc(Oc3ncnc4c3CN(CC3CCN(C)CC3)C4)c(F)c2)c(=O)n(-c2ccc(F)cc2)c1=O	11	6.2	2.5	80	69	32
Cc1ccc(-n2c(=O)c(C(=O)Nc3ccc(Oc4ncnc5c4CCN(CC4CCN(C)CC4)C5)c(F)c3)cn(CC3CC3)c2=O)nc1	51	5.3	6.2	210	270	34
CN1CCC(CN2CCc3c(ncnc3Oc3ccc(NC(=O)c4cn(CC5CC5)c(=O)n(-c5ccc(F)cc5)c4=O)cc3F)C2)CC1	33	1.9	6.1	51	62	8.4
CC(C)n1cc(C(=O)Nc2ccc(Oc3ncnc4c3CCN(CC(=O)N3CCC3)C4)c(F)c2)c(=O)n(-c2ccc(F)cc2)c1=O	14	14	5.6	370	200	66
CC(C)n1cc(C(=O)Nc2ccc(Oc3ncnc4c3CN(C(=O)CC3CCN(C)CC3)C4)c(F)c2)c(=O)n(-c2ccc(F)cc2)c1=O	< 1.2	3.4	2.3	39	< 4.1	17
CC(C)n1cc(C(=O)Nc2ccc(Oc3ncnc4c3CC(=O)N4)c(F)c2)c(=O)n(-c2ccc(F)cc2)c1=O	2.9	26	2.9	280	76	84
CC(C)n1cc(C(=O)Nc2ccc(Oc3ncnc4c3CN(C(=O)CN3CCOCC3)C4)c(F)c2)c(=O)n(-c2ccc(F)cc2)c1=O	14	16	2.7	730	230	270
CN1CCC(CN2CCc3c(ncnc3Oc3ccc(NC(=O)c4cn(CC5CCC5)c(=O)n(-c5ccc(F)cc5)c4=O)cc3F)C2)CC1	37	2.4	8.1	130	88	16
CC(C)n1cc(C(=O)Nc2ccc(Oc3ncnc4c3CN(C(=O)CCN3CCCC3)C4)c(F)c2)c(=O)n(-c2ccc(F)cc2)c1=O	11	15	2.3	280	160	120
CN1CCC(CN2CCc3c(ncnc3Oc3ccc(NC(=O)c4cn(C5CCCC5)c(=O)n(-c5ccc(F)cc5)c4=O)cc3F)C2)CC1	19	2.7	4.3	34	51	7.9
CC(C)n1cc(C(=O)Nc2ccc(Oc3ncnc4c3CCN(C(=O)CC3CCN(C)CC3)C4)c(F)c2)c(=O)n(-c2ccc(F)cc2)c1=O	20	4.3	5.2	150	88	29
CN1CCC(CN2CCc3c(ncnc3Oc3ccc(NC(=O)c4cn(CCF)c(=O)n(-c5ccc(F)cc5)c4=O)cc3F)C2)CC1	18	8.5	2.7	130	150	49
CC(C)n1cc(C(=O)Nc2ccc(Oc3ncnc4c3CCN(CC3CN(C)C3)C4)c(F)c2)c(=O)n(-c2ccc(F)cc2)c1=O	12	6.3	4.2	92	77	22
